Laboratory results reported in patent US20230263822A1, “MODULATION OF FACTOR 11 EXPRESSION” (Ionis Pharmaceuticals, Inc., priority 2008, published 2023).
Strand notation (5' to 3'): a small letter for the sugar, then the base; units joined by * are phosphorothioate-linked, units joined directly phosphodiester-linked; [ ] holds rarer units or linkages, { } end groups; capitals alone tell only the bases. e = 2'-O-(2-methoxyethyl) (MOE); [5mC] = 5-methylcytosine; d = 2'-deoxy (DNA)

Legend:
Assay type in all cases: in vivo
[1] = test system: IL-1β, IL-6, IFN-γ, TNF-α, IL-8, MIP-1α, MCP-1, MIP-1β, RANTES; assay: Cytokine and chemokine assays in cynomolgus monkeys (Example 46)
Method: (§1) Groups, each consisting of two male and two female monkeys, were injected subcutaneously with 25 mg/kg of ISIS 416850, ISIS 449709, ISIS 445522, ISIS 449710, ISIS 449707, ISIS 449711, ISIS 449708, 416858, and ISIS 445531. Antisense oligonucleotide was administered to the monkeys at 25 mg/kg three times per week for week 1 and 25 mg/kg twice per week for weeks 2 to 8. A control group, consisting of two male and two female monkeys was injected subcutaneously with PBS according to the same dosing regimen. Body weights were taken 14 days and 7 days before the start of treatment and were then measured weekly throughout the treatment period. Blood samples were collected 14 days and 5 days before the start of treatment and subsequently several times during the dosing regimen for PT and aPTT measurements, and measurement of various hematologic factors. On day 55, the monkeys were euthanized by exsanguination while under deep anesthesia, and organs harvested for further analysis.
Blood samples obtained from all monkey groups were sent to Pierce Biotechnology (Woburn, Mass.) for measurements of chemokine and cytokine levels. Levels of IL-1β, IL-6, IFN-γ, and TNF-α were measured using the respective primate antibodies and levels of IL-8, MIP-1α, MCP-1, MIP-1β and RANTES were measured using the respective cross-reacting human antibodies. Measurements were taken 14 days before the start of treatment and on day 55, when the monkeys were euthanized.

[2] = Kidney function, BUN, urine protein to creatinine ratio in cynomolgus monkeys (Example 46); conditions: for Urine protein/creatinine ratio: day 49
Method: as §1
To evaluate the impact of ISIS oligonucleotides on kidney function, urine samples were collected on different days. […] The ratio of urine protein to creatinine in urine samples after antisense oligonucleotide treatment was also calculated for day 49 and results are presented in Table 156. As observed in Tables 155 and 156, there were no significant increases in any of the kidney metabolic markers after antisense oligonucleotide treatment.

[3] = Body and organ weights of cynomolgus monkeys (Example 46); parameters: Liver weight / Spleen weight / Kidney weight: unit not given here; conditions: for Kidney weight / Liver weight / Spleen weight: day 55, after euthanasia
Method: as §1
Organ weights were taken after the animals were euthanized on day 55, and livers, kidneys and spleens were harvested.

[4] = day-14 (before start of treatment)
[5] = Day −5 (before start of treatment)
[6] = Day −14 (before start of treatment)

Row | Substance | IFN-γ level ([1]; day 55) | IL-1ß level ([1]; day 55) | IL-6 level ([1]; day 55) | IL-8 level ([1]; day 55) | MCP-1 level ([1]; day 55) | MIP-1ß level ([1]; day 55) | MIP-1α level ([1]; day 55) | RANTES level ([1]; day 55) | TNF-α level ([1]; day 55) | IFN-γ level [1, 4] | IL-1ß level [1, 4] | IL-6 level [1, 4] | IL-8 level [1, 4] | MCP-1 level [1, 4] | MIP-1ß level [1, 4] | MIP-1α level [1, 4] | RANTES level [1, 4] | TNF-α level [1, 4] | BUN levels ([2]; Day 31) | BUN levels ([2]; Day 55) | also measured
1 | ISIS 449707: 3-8-3, 4-8-4, 2-10-2, 3-10-3 or 4-10-4 MOE microwalk gapmer (Table 46) (antisense e[5mC]*eA*e[5mC]*eA*dG*dT*dT*dT*d[5mC]*dT*dG*dG*e[5mC]*eA*eG*eG) | 24 pg/mL | 97 pg/mL | 1 pg/mL | 48 pg/mL | 264 pg/mL | 49 pg/mL | 12 pg/mL | 1193 pg/mL | 16 pg/mL | 34 pg/mL | 115 pg/mL | 1 pg/mL | 106 pg/mL | 294 pg/mL | 13 pg/mL | 16 pg/mL | 3014 pg/mL | 6 pg/mL | 21 mg/dL | 20 mg/dL | BUN levels [2, 5]: 21 mg/dL; BUN levels [2, 6]: 25 mg/dL; Urine protein/creatinine ratio [2]: 0.03; body weight ([3]; day 1): 2107 g; body weight ([3]; day 8): 2088 g; body weight ([3]; day 15): 2120 g; body weight ([3]; day 22): 2142 g; body weight ([3]; day 29): 2155 g; body weight ([3]; day 36): 2158 g; body weight ([3]; day 43): 2197 g; body weight ([3]; day 50): 2185 g; Kidney weight [3]: 0.53; Liver weight [3]: 2.5; Spleen weight [3]: 0.24; body weight ([3]; day −7): 2083 g; body weight ([3]; day −14): 2072 g
2 | ISIS 449708: 3-8-3, 4-8-4, 2-10-2, 3-10-3 or 4-10-4 MOE microwalk gapmer (Table 46) (antisense eA*e[5mC]*eA*dG*dT*dT*dT*d[5mC]*dT*dG*dG*e[5mC]*eA*eG) | 18 pg/mL | 131 pg/mL | 0 pg/mL | 85 pg/mL | 409 pg/mL | 128 pg/mL | 23 pg/mL | 4561 pg/mL | 17 pg/mL | 27 pg/mL | 35 pg/mL | 1 pg/mL | 184 pg/mL | 361 pg/mL | 19 pg/mL | 11 pg/mL | 11666 pg/mL | 12 pg/mL | 23 mg/dL | 23 mg/dL | BUN levels [2, 5]: 23 mg/dL; BUN levels [2, 6]: 25 mg/dL; Urine protein/creatinine ratio [2]: 0.00; body weight ([3]; day 1): 2130 g; body weight ([3]; day 8): 2148 g; body weight ([3]; day 15): 2125 g; body weight ([3]; day 22): 2110 g; body weight ([3]; day 29): 2095 g; body weight ([3]; day 36): 2100 g; body weight ([3]; day 43): 2125 g; body weight ([3]; day 50): 2076 g; Kidney weight [3]: 0.60; Liver weight [3]: 2.6; Spleen weight [3]: 0.19; body weight ([3]; day −7): 2163 g; body weight ([3]; day −14): 2096 g
3 | ISIS 449709: 3-8-3, 4-8-4, 2-10-2, 3-10-3 or 4-10-4 MOE microwalk gapmer (Table 46) (antisense eG*e[5mC]*eA*e[5mC]*dA*dG*dT*dT*dT*d[5mC]*dT*dG*dG*d[5mC]*eA*eG*eG*e[5mC]) | 25 pg/mL | 181 pg/mL | 0 pg/mL | 254 pg/mL | 507 pg/mL | 47 pg/mL | 17 pg/mL | 8958 pg/mL | 8 pg/mL | 37 pg/mL | 137 pg/mL | 1 pg/mL | 34 pg/mL | 290 pg/mL | 14 pg/mL | 13 pg/mL | 2471 pg/mL | 9 pg/mL | 20 mg/dL | 28 mg/dL | BUN levels [2, 5]: 21 mg/dL; BUN levels [2, 6]: 22 mg/dL; Urine protein/creatinine ratio [2]: 0.05; body weight ([3]; day 1): 2112 g; body weight ([3]; day 8): 2075 g; body weight ([3]; day 15): 2085 g; body weight ([3]; day 22): 2117 g; body weight ([3]; day 29): 2068 g; body weight ([3]; day 36): 2064 g; body weight ([3]; day 43): 2106 g; body weight ([3]; day 50): 2147 g; Kidney weight [3]: 0.57; Liver weight [3]: 2.6; Spleen weight [3]: 0.21; body weight ([3]; day −7): 2093 g; body weight ([3]; day −14): 2044 g
4 | ISIS 449710: 3-8-3, 4-8-4, 2-10-2, 3-10-3 or 4-10-4 MOE microwalk gapmer (Table 46) (antisense e[5mC]*eA*e[5mC]*dA*dG*dT*dT*dT*d[5mC]*dT*dG*dG*d[5mC]*eA*eG*eG) | 176 pg/mL | 286 pg/mL | 2 pg/mL | 348 pg/mL | 474 pg/mL | 53 pg/mL | 27 pg/mL | 22656 pg/mL | 26 pg/mL | 1115 pg/mL | 271 pg/mL | 7 pg/mL | 29 pg/mL | 409 pg/mL | 18 pg/mL | 20 pg/mL | 1215 pg/mL | 72 pg/mL | 19 mg/dL | 23 mg/dL | BUN levels [2, 5]: 19 mg/dL; BUN levels [2, 6]: 19 mg/dL; Urine protein/creatinine ratio [2]: 0.00; body weight ([3]; day 1): 2131 g; body weight ([3]; day 8): 2120 g; body weight ([3]; day 15): 2145 g; body weight ([3]; day 22): 2177 g; body weight ([3]; day 29): 2149 g; body weight ([3]; day 36): 2180 g; body weight ([3]; day 43): 2227 g; body weight ([3]; day 50): 2201 g; Kidney weight [3]: 0.58; Liver weight [3]: 2.6; Spleen weight [3]: 0.24; body weight ([3]; day −7): 2114 g; body weight ([3]; day −14): 2097 g
